Measurements taken from publication PMC5656653, “Evaluation of Ga-DOTA-(D-Asp)n as bone imaging agents: D-aspartic acid peptides as carriers to bone” (Scientific Reports, 2017).
Where a SMILES comes first, the peptide text is derived from it. [ ]: non-standard residue; d: D form. The star is where a group is joined. DOTA = O=C(O)CN1CCN(CC(=O)O)CCN(CC(=O)*)CCN(CC(=O)O)CC1

Experiment: Biodistribution experiments in normal mice after i.v. injection
Type: in vivo
Conditions: mouse, in vivo, iv; for tissue uptake dose at 10 min / tissue uptake dose at 1 h / tissue uptake dose at 3 h: male, ddY, total radioactivity, Biodistribution of radioactivity
Experimental: Experiments with animals were conducted in strict accordance with the Guidelines for the Care and Use of Laboratory Animals of Kanazawa University. The animal experimental protocols used were approved by the Committee on Animal Experimentation of Kanazawa University (Permit Number: AP-132633). Biodistribution experiments were performed after intravenous administration of each diluted tracer solution (37–740 kBq/100 μL) to 6-week-old male ddY mice (27–32 g, Japan SLC, Inc., Hamamatsu, Japan). Four or five mice at each time point after the administration of each compound were sacrificed by decapitation at 10, 60, and 180 min post-injection. Tissues of interest were taken and weighed. Complete left femurs were isolated as representative bone samples, radioactivity was determined using gamma counters (AccuFLEX γ ARC-8001 in the case of ^18F, Hitachi, Ltd.), and background counts and physical decay were corrected during counting.

## O=C(O)C[C@@H](NC(=O)[C@@H](CC(=O)O)NC(=O)CN1CCN(CC(=O)O)CCN(CC(=O)O)CCN(CC(=O)O)CC1)C(=O)O [^67Ga-DOTA-(D-Asp)2, metal not drawn] ({DOTA}-[dD]-[dD]-OH)
Blood
  tissue uptake dose at 10 min: 2.19 %ID
  tissue uptake dose at 1 h: 0.24 %ID
  tissue uptake dose at 3 h: 0.05 %ID
Bone (Femur)
  tissue uptake dose at 10 min: 1.57 %ID
  tissue uptake dose at 1 h: 0.88 %ID
  tissue uptake dose at 3 h: 0.49 %ID
Brain
  tissue uptake dose at 10 min: 0.07 %ID
  tissue uptake dose at 1 h: 0.02 %ID
  tissue uptake dose at 3 h: 0.01 %ID
Heart
  tissue uptake dose at 10 min: 0.86 %ID
  tissue uptake dose at 1 h: 0.11 %ID
  tissue uptake dose at 3 h: 0.06 %ID
Kidney
  tissue uptake dose at 10 min: 7.61 %ID
  tissue uptake dose at 1 h: 6.33 %ID
  tissue uptake dose at 3 h: 1.42 %ID
Large-intestine
  tissue uptake dose at 10 min: 0.37 %ID
  tissue uptake dose at 1 h: 0.12 %ID
  tissue uptake dose at 3 h: 0.38 %ID
Liver
  tissue uptake dose at 10 min: 0.57 %ID
  tissue uptake dose at 1 h: 0.31 %ID
  tissue uptake dose at 3 h: 0.11 %ID
Lung
  tissue uptake dose at 10 min: 1.45 %ID
  tissue uptake dose at 1 h: 0.26 %ID
  tissue uptake dose at 3 h: 0.08 %ID
Muscle
  tissue uptake dose at 10 min: 0.53 %ID
  tissue uptake dose at 1 h: 0.11 %ID
  tissue uptake dose at 3 h: 0.08 %ID
Pancreas
  tissue uptake dose at 10 min: 0.57 %ID
  tissue uptake dose at 1 h: 0.15 %ID
  tissue uptake dose at 3 h: 0.09 %ID
Small-intestine
  tissue uptake dose at 10 min: 0.5 %ID
  tissue uptake dose at 1 h: 0.14 %ID
  tissue uptake dose at 3 h: 0.08 %ID
Spleen
  tissue uptake dose at 10 min: 0.5 %ID
  tissue uptake dose at 1 h: 0.24 %ID
  tissue uptake dose at 3 h: 0.08 %ID
Stomach
  tissue uptake dose at 10 min: 0.24 %ID
  tissue uptake dose at 1 h: 0.06 %ID
  tissue uptake dose at 3 h: 0.36 %ID
  Accumulation of radioactivity in bone (in words): subtle accumulation of radioactivity in bone
